From patent US12077503B2, “Substituted cyclic amides and their use as herbicides” (FMC CORPORATION, priority 2015, dated 2024)

Key:
Experiment in all cases: Test C preemergence
Format in all cases: in vivo
[1] = tested on: Galium (catchweed bedstraw, Galium aparine); details: for Plant response rating, Galium: scale 0 to 100, 0 no effect, 100 complete control
In short: (§1)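 Visual rating, 0–100 scale (0 = no effect, 100 = complete control) versus controls, 13–15 d after treatment. Compounds in non-phytotoxic solvent plus surfactant; applied preemergence to seeds in loam/sand soil or postemergence to 1- to 4-leaf plants (2–18 cm) in peat/vermiculite medium; greenhouse-held.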

[2] = tested on: barnyardgrass (Echinochloa crus-galli); details: for Plant response rating, Barnyardgrass: scale 0 to 100, 0 no effect, 100 complete control
In short: as §1

[3] = tested on: blackgrass (Alopecurus myosuroides); details: for Plant response rating, Blackgrass: scale 0 to 100, 0 no effect, 100 complete control
In short: as §1

corn (Zea mays) = details: for Plant response rating, Corn: scale 0 to 100, 0 no effect, 100 complete control
In short: as §1

[4] = tested on: crabgrass, large (large crabgrass, Digitaria sanguinalis); details: for Plant response rating, Crabgrass, Large: scale 0 to 100, 0 no effect, 100 complete control
In short: as §1

[5] = tested on: foxtail, giant (giant foxtail, Setaria faberii); details: for Plant response rating, Foxtail, Giant: scale 0 to 100, 0 no effect, 100 complete control
In short: as §1

[6] = tested on: johnsongrass (Sorghum halepense); details: for Plant response rating, Johnsongrass: scale 0 to 100, 0 no effect, 100 complete control
In short: as §1

[7] = tested on: lambsquarters (Chenopodium album); details: for Plant response rating, Lambsquarters: scale 0 to 100, 0 no effect, 100 complete control
In short: as §1

[8] = tested on: morningglory (Ipomoea coccinea); details: for Plant response rating, Morningglory: scale 0 to 100, 0 no effect, 100 complete control
In short: as §1

[9] = tested on: nutsedge, yellow (yellow nutsedge, Cyperus esculentus); details: for Plant response rating, Nutsedge, Yellow: scale 0 to 100, 0 no effect, 100 complete control
In short: as §1

[10] = tested on: oilseed rape (Brassica napus); details: for Plant response rating, Oilseed Rape: scale 0 to 100, 0 no effect, 100 complete control
In short: as §1

[11] = tested on: pigweed (Amaranthus retroflexus); details: for Plant response rating, Pigweed: scale 0 to 100, 0 no effect, 100 complete control
In short: as §1

[12] = tested on: ragweed (common ragweed, Ambrosia elatior); details: for Plant response rating, Ragweed: scale 0 to 100, 0 no effect, 100 complete control
In short: as §1

[13] = tested on: ryegrass, Italian (Italian ryegrass, Lolium multiflorum); details: for Plant response rating, Ryegrass, Italian: scale 0 to 100, 0 no effect, 100 complete control
In short: as §1

soybean (Glycine max) = tested on: soybean (Glycine max)
In short: as §1

[14] = tested on: velvetleaf (Abutilon theophrasti); details: for Plant response rating, Velvetleaf: scale 0 to 100, 0 no effect, 100 complete control
In short: as §1

[15] = tested on: waterhemp (common waterhemp, Amaranthus rudis); details: for Plant response rating, Waterhemp: scale 0 to 100, 0 no effect, 100 complete control
In short: as §1

[16] = tested on: wheat (winter wheat, Triticum aestivum); details: for Plant response rating, Wheat: scale 0 to 100, 0 no effect, 100 complete control
In short: as §1

[17] = 31 g ai/ha, 0 is no effect, 100 is complete control

CC(C)Oc1cccc(C2CN(C)C(=O)C2C(=O)Nc2cccc(F)c2F)c1 (stereo not shown) [Compound 651]
Plant response rating (scale of 0 to 100), Galium [1, 17]: 60 | Plant response rating, Galium ([1]; 62 g ai/ha): 50 | Plant response rating, Galium ([1]; 125 g ai/ha): 90 | Plant response rating, Galium ([1]; 250 g ai/ha): 90 | Plant response rating (scale of 0 to 100), Barnyardgrass [2, 17]: 95 | Plant response rating, Barnyardgrass ([2]; 62 g ai/ha): 98 | Plant response rating, Barnyardgrass ([2]; 125 g ai/ha): 100 | Plant response rating, Barnyardgrass ([2]; 250 g ai/ha): 100 | Plant response rating (scale of 0 to 100), Blackgrass [3, 17]: 40 | Plant response rating, Blackgrass ([3]; 62 g ai/ha): 45 | Plant response rating, Blackgrass ([3]; 125 g ai/ha): 60 | Plant response rating, Blackgrass ([3]; 250 g ai/ha): 85 | Plant response rating (scale of 0 to 100), Corn (corn (Zea mays); [17]): 25 | Plant response rating, Corn (corn (Zea mays); 62 g ai/ha): 55 | Plant response rating, Corn (corn (Zea mays); 125 g ai/ha): 70 | Plant response rating, Corn (corn (Zea mays); 250 g ai/ha): 70 | Plant response rating (scale of 0 to 100), Crabgrass, Large [4, 17]: 98 | Plant response rating, Crabgrass, Large ([4]; 62 g ai/ha): 100 | Plant response rating, Crabgrass, Large ([4]; 125 g ai/ha): 100 | Plant response rating, Crabgrass, Large ([4]; 250 g ai/ha): 100 | Plant response rating (scale of 0 to 100), Foxtail, Giant [5, 17]: 95 | Plant response rating, Foxtail, Giant ([5]; 62 g ai/ha): 98 | Plant response rating, Foxtail, Giant ([5]; 125 g ai/ha): 98 | Plant response rating, Foxtail, Giant ([5]; 250 g ai/ha): 100 | Plant response rating (scale of 0 to 100), Johnsongrass [6, 17]: 20 | Plant response rating, Johnsongrass ([6]; 62 g ai/ha): 50 | Plant response rating, Johnsongrass ([6]; 125 g ai/ha): 70 | Plant response rating, Johnsongrass ([6]; 250 g ai/ha): 80 | Plant response rating (scale of 0 to 100), Lambsquarters [7, 17]: 35 | Plant response rating, Lambsquarters ([7]; 62 g ai/ha): 55 | Plant response rating, Lambsquarters ([7]; 125 g ai/ha): 85 | Plant response rating, Lambsquarters ([7]; 250 g ai/ha): 100 | Plant response rating (scale of 0 to 100), Morningglory [8, 17]: 0 | Plant response rating, Morningglory ([8]; 62 g ai/ha): 0 | Plant response rating, Morningglory ([8]; 125 g ai/ha): 0 | Plant response rating, Morningglory ([8]; 250 g ai/ha): 0 | Plant response rating (scale of 0 to 100), Nutsedge, Yellow [9, 17]: 0 | Plant response rating, Nutsedge, Yellow ([9]; 62 g ai/ha): 0 | Plant response rating, Nutsedge, Yellow ([9]; 125 g ai/ha): 0 | Plant response rating, Nutsedge, Yellow ([9]; 250 g ai/ha): 0 | Plant response rating (scale of 0 to 100), Oilseed Rape [10, 17]: 75 | Plant response rating, Oilseed Rape ([10]; 62 g ai/ha): 80 | Plant response rating, Oilseed Rape ([10]; 125 g ai/ha): 90 | Plant response rating, Oilseed Rape ([10]; 250 g ai/ha): 90 | Plant response rating (scale of 0 to 100), Pigweed [11, 17]: 35 | Plant response rating, Pigweed ([11]; 62 g ai/ha): 40 | Plant response rating, Pigweed ([11]; 125 g ai/ha): 50 | Plant response rating, Pigweed ([11]; 250 g ai/ha): 85 | Plant response rating (scale of 0 to 100), Ragweed [12, 17]: 20 | Plant response rating, Ragweed ([12]; 62 g ai/ha): 25 | Plant response rating, Ragweed ([12]; 125 g ai/ha): 60 | Plant response rating, Ragweed ([12]; 250 g ai/ha): 85 | Plant response rating (scale of 0 to 100), Ryegrass, Italian [13, 17]: 15 | Plant response rating, Ryegrass, Italian ([13]; 62 g ai/ha): 40 | Plant response rating, Ryegrass, Italian ([13]; 125 g ai/ha): 75 | Plant response rating, Ryegrass, Italian ([13]; 250 g ai/ha): 85 | Plant response rating (scale of 0 to 100), Soybean (soybean (Glycine max); [17]): 5 | Plant response rating, Soybean (soybean (Glycine max); 125 g ai/ha, scale 0 to 100, 0 no effect, 100 complete control): 0 | Plant response rating (scale of 0 to 100), Velvetleaf [14, 17]: 25 | Plant response rating, Velvetleaf ([14]; 62 g ai/ha): 45 | Plant response rating, Velvetleaf ([14]; 125 g ai/ha): 70 | Plant response rating, Velvetleaf ([14]; 250 g ai/ha): 70 | Plant response rating (scale of 0 to 100), Waterhemp [15, 17]: 20 | Plant response rating, Waterhemp ([15]; 62 g ai/ha): 40 | Plant response rating, Waterhemp ([15]; 125 g ai/ha): 50 | Plant response rating, Waterhemp ([15]; 250 g ai/ha): 85 | Plant response rating (scale of 0 to 100), Wheat [16, 17]: 50 | Plant response rating, Wheat ([16]; 62 g ai/ha): 50 | Plant response rating, Wheat ([16]; 125 g ai/ha): 55 | Plant response rating, Wheat ([16]; 250 g ai/ha): 75
